From PubChem BioAssay AID1996
In brackets after ≈: the same amount, converted by molar mass.

conditions: buffer; pH 7.4; 200.0 µM

| Structure (SMILES) | solubility kinetic [µg/mL] |
| --- | --- |
| CCOc1ccc(NC(=O)CCc2ccc(C)o2)cc1 | 10.5 (≈ 38.4 µM) |
| CCN(CC)c1ccc(NC(=O)c2cc3c(OC)cccc3[nH]2)cc1 | 0.5 (≈ 1.48 µM) |
| Cc1ccc(CNC(=S)NC2CCC(C(C)(C)C)CC2)cc1 (centres undefined) | < 0.3 |
| CCOC(=O)c1[nH]cnc1C(=O)Nc1ccccc1 | 11.4 (≈ 44 µM) |
| Cc1csc(NC(=O)c2ccc(N3CCCC3=O)cc2)n1 | 4.7 (≈ 15.6 µM) |
| O=C(NCc1ccc(Cl)cc1)Nc1ccc(F)cc1 | 1.3 (≈ 4.66 µM) |
| CN1CCN(c2ncnc3scc(-c4ccccc4Cl)c23)CC1 | > 51.7 |
| CC(C)CC(=O)Nc1ccccc1N1CCN(c2ccccc2)CC1 | 1.6 (≈ 4.74 µM) |
| Cn1ncc([N+](=O)[O-])c1C(=O)Nc1ccccc1 | > 36.9 |
| O=C(N/N=C\c1cccnc1)c1ccccc1O | > 36.2 |
| CC(C)N(CC(N)=O)C(=O)c1sc2cc(F)ccc2c1Cl | 45 (≈ 137 µM) |
| Cc1ccc(CNC(=O)C2CCCN(c3cnccn3)C2)cc1 (centres undefined) | > 46.6 |
| CCOc1ccc(S(=O)(=O)/N=C(\N)c2ccccc2)cc1 | > 45.7 |
| CC(=O)c1cn(CCOc2ccccc2C)c2ccccc12 | < 0.6 |
| CC1=CC(=C(C#N)C#N)C=C(C)N1CCC(C)C | 1.7 (≈ 7.04 µM) |
| O=C(COc1ccc(F)cc1Cl)NC1CCCCCC1 | 28.3 (≈ 94.4 µM) |
| COc1cc(/C=C/C(=O)OCC(=O)NCc2ccc3c(c2)OCO3)cc(OC)c1OC | 4.3 (≈ 10 µM) |
| CCOC(=O)C1=C(COC(=O)c2cccc(Cl)c2)NC(=O)NC1C (centres undefined) | 46.2 (≈ 131 µM) |
| CCN1CCN(C(=O)C(N)Cc2ccccc2)CC1 (centres undefined) | 37.5 (≈ 143 µM) |
| O=C(O)C(=O)O.c1ccc(COc2cccc(CN3CCCCC3)c2)cc1 | 46.2 |
| Cn1c(=O)oc2cc(S(=O)(=O)NC3CCCCC3)ccc21 | > 46.6 |
| O=C(Cc1ccccc1)N1CCC(c2ccccc2)C1 (centres undefined) | 38.6 (≈ 145 µM) |
| COC(=O)/C=C1\NCCNC1=O | > 25.5 |
| CC(C)CC(NC(N)=O)C(=O)NCc1ccc(Cl)cc1 (centres undefined) | 35.3 (≈ 119 µM) |

| Structure (SMILES) | solubility kinetic [µg/mL] |
| --- | --- |
| COc1ccc(S(=O)(=O)N2CCOc3ccccc32)cc1 | 17.6 (≈ 57.6 µM) |
| CCOC(=O)C(CC)Sc1cc(C)nc2ccc(OC)cc12 (centres undefined) | 34.8 (≈ 109 µM) |
| NC(=NCCc1c[nH]c2ccccc12)NC(=O)c1ccc(F)cc1 | > 48.7 |
| Cc1nc(Nc2ccccc2F)c2oc3ccccc3c2n1 | 0.3 (≈ 1.02 µM) |
| Cc1ccc(C(=O)OCC(=O)Nc2cc(C(C)(C)C)no2)c(C)c1 | 3.1 (≈ 9.38 µM) |
| O=C(Nc1ccc(Cl)c(Cl)c1)Nc1ccon1 | 1.6 (≈ 5.88 µM) |
| Cc1cccc(NC(=O)Nc2ccc3c(c2)CCC3)c1 | < 0.3 |
| Cc1cccc(NC(=O)COC(=O)c2ccc([N+](=O)[O-])o2)c1C | 17.2 (≈ 54 µM) |
| Cc1ccc2c(c1)C(c1ccccc1)N(C(=O)CC(C)C)CC(=O)N2 (centres undefined) | > 50.5 |
| COc1ccc(/C=C(\C#N)C(=O)Nc2cccc(C)n2)cc1 | 0.4 (≈ 1.36 µM) |
| CC(C)Cc1nc2oc3c(NCC(C)O)ncnc3c2c2c1CCCC2 (centres undefined) | 2.1 (≈ 5.92 µM) |
| N=C(N)N1CCN(Cc2ccccc2)CC1.O=S(=O)(O)O | 6.7 |
| Cc1ccc(S(=O)(=O)N(C)C)cc1NC(=O)C(C)OC(=O)c1cc[n+]([O-])cc1 (centres undefined) | > 61.1 |
| Cl.OCCN1C2=NCCCN2c2ccccc21 | > 38.1 |
| Cc1ccc(NC(=O)C2CCCC2)cc1Cl | 3.7 (≈ 15.6 µM) |
| CCCCCCCCCCOC(=O)NC1CCS(=O)(=O)C1 (centres undefined) | 1.1 (≈ 3.44 µM) |
| O=C(NC12CC3CC(CC(C3)C1)C2)c1ccc(Br)o1 | 9.7 (≈ 29.9 µM) |
| COc1ccc(C2C(C#N)=C(N)OC3=C2C(=O)CCC3)cc1OC (centres undefined) | > 49 |
| Cc1ccc(NS(=O)(=O)c2c(F)cc(F)c(Cl)c2F)cc1S(=O)(=O)N1CCOCC1 | > 72.7 |
| COc1ccc(N2CCN(C(=O)Cn3cncn3)CC2)cc1 | > 45.2 |
| Cc1cc(C)c(NC(=O)CCCN2CCCC2)c(C)c1 | > 41.2 |
| COCC(C)NC(=O)c1ccc2c(c1)S(=O)(=O)c1ccccc1C2=O (centres undefined) | > 53.9 |
| CC(NC(=O)C1CC1)c1ccc(-c2ccccc2)cc1 (centres undefined) | 1.5 (≈ 5.65 µM) |
| O=C1Nc2ccc(Br)cc2C1=C1CCCCC1 | 7.4 (≈ 25.3 µM) |

| Structure (SMILES) | solubility kinetic [µg/mL] |
| --- | --- |
| COc1ccc(NS(=O)(=O)c2cccc(C(=O)N3CCN(C(=O)c4ccco4)CC3)c2)cc1 | 68.1 (≈ 145 µM) |
| O=[N+]([O-])c1ccc(CP(=O)(c2ccccc2)c2ccccc2)cc1 | 8 (≈ 23.7 µM) |
| CCOC(=O)CNC(=O)CSc1nc(-c2ccc(C)cc2)ns1 | 11.1 (≈ 31.6 µM) |
| COc1ccnc2c1c(=O)n(Cc1c(F)cccc1Cl)c(=O)n2C | 9.8 (≈ 28 µM) |
| O=C(c1cc2cc(Br)ccc2s1)N1CCOCC1 | 45.8 (≈ 140 µM) |
| CCCN1C(=O)c2ccccc2NC1c1ccc(Cl)c(Cl)c1 (centres undefined) | 11.9 (≈ 35.5 µM) |
| COc1ccccc1NC(=O)C[n+]1ccccc1C.[Cl-] | 41 |
| NC(=O)c1ccsc1NC(=O)COC(=O)c1cnccn1 | > 45.9 |
| COc1ccc(N2CCN(C(=O)COC(=O)c3cccc(OC)c3O)CC2)cc1 | 7.2 (≈ 18 µM) |
| CC1CCN(C(=O)CCNC(=O)c2ccccc2)CC1 | 37.1 (≈ 135 µM) |
| O=c1cc(Cl)[nH]c(=O)n1Cc1ccccc1 | > 35.5 |
| Nc1nc(NCCOCCO)nc(NCC2CCCO2)c1[N+](=O)[O-] (centres undefined) | > 51.4 |
| O=C(CSc1ncnc2ccccc12)N1CCNC1=O | > 43.2 |
| Cc1onc(-c2ccccc2)c1C(O)c1ccc(F)cc1 (centres undefined) | > 42.5 |
| Cc1c(C(=O)N2CCOCC2)oc2ccccc12 | > 36.8 |
| Cn1cnc([N+](=O)[O-])c1NCc1ccccc1 | 33.5 (≈ 144 µM) |
| COC(=O)C(N)Cc1ccc(O)c(O)c1.Cl (centres undefined) | 24.4 |
| CC(=O)N1c2ccc(Cl)cc2C2OCCC2C1c1ccco1 (centres undefined) | 42.2 (≈ 133 µM) |
| O=[N+]([O-])c1ccc(CCn2ccnc2)cc1 | > 32.6 |
| COc1ccc(N2C(=O)CSC2c2ccccc2[N+](=O)[O-])cc1 (centres undefined) | 47.7 (≈ 144 µM) |
| CCOC(=O)C1CCN(CC(=O)Nc2ccc(OC)c(S(=O)(=O)N3CCCCC3)c2)CC1 | > 70.1 |
| COC(=O)c1ccc(NC(=O)c2cc[n+]([O-])cc2)cc1 | > 40.8 |
| Cc1ccc(F)cc1NC(=O)/C=C/c1ccc(S(=O)(=O)N2CCOCC2)cc1 | 1.8 (≈ 4.45 µM) |
| CCS(=O)(=O)N1CCN=C1SCc1cccc(F)c1 | > 45.4 |

| Structure (SMILES) | solubility kinetic [µg/mL] |
| --- | --- |
| CN(CCC#N)C(=O)c1cc2c(Cl)nc3ccccc3c2s1 | 1.1 (≈ 3.34 µM) |
| COc1ccc(Cl)cc1NC(=O)C(C)N1CCc2ccccc21 (centres undefined) | 1.1 (≈ 3.33 µM) |
| COc1ccccc1OCCNC(=O)Nc1cc(F)c(F)cc1Cl | 0.7 (≈ 1.96 µM) |
| CCn1c(=O)c2ccccc2n(Cc2ccccc2C)c1=O | 3.1 (≈ 10.5 µM) |
| COc1ccccc1CC(=O)N1CCN(S(=O)(=O)c2ccccc2F)CC1 | > 58.9 |
| CCN1CCN(C(=S)NC(=O)/C=C/c2cccs2)CC1 | 44.8 (≈ 145 µM) |
| Cc1ccc(S(=O)(=O)N2CCCCC2)cc1NC(=O)C1CC1 | > 48.4 |
| COc1cccc2[nH]c3c(=O)[nH]cnc3c12 | > 32.3 |
| CCOC(=O)C1CCN(S(=O)(=O)c2c[nH]c(=O)[nH]c2=O)CC1 | > 49.7 |
| CCOC(=O)c1ccc(NC(=O)c2ccco2)cc1 | > 38.9 |
| CCOC(=O)C1=C(O)/C(=C\c2ccc(O)c(OCC)c2)N=C1C | 36.1 (≈ 114 µM) |
| S=C(NCc1ccncc1)Nc1cc(Cl)cc(Cl)c1 | 5.6 (≈ 17.9 µM) |
| CCN(C(=O)COC(=O)c1cccnc1)c1cccc2ccccc12 | > 50.2 |
| COc1ccc(OCCNC(=O)c2ccccc2Cl)cc1 | > 45.9 |
| COc1ccc(-n2nc3c(c2NC(C)=O)CS(=O)(=O)C3)cc1 | > 48.2 |
| CC1CCCN(C(=O)CN2C(=O)C(C)Oc3ccccc32)C1 (centres undefined) | > 45.4 |
| O=C(COC(=O)c1ccco1)NC1CCCc2ccccc21 (centres undefined) | > 44.9 |
| Cc1cc(C(=O)OCC(=O)N2C(C)CCCC2C)c2ccccc2n1 (centres undefined) | > 51.1 |
| Cc1cccc(OCC(=O)NC2CCCC2)c1 | 31.5 (≈ 135 µM) |
| CCC(=O)NCCc1nc2cc(NC(=O)c3cccs3)ccc2n1C | > 53.5 |
| Cl.O=C(NCCCn1ccnc1)c1ccccc1F | > 42.6 |
| CCCOc1ccc(CN(C)c2ncnc(N)n2)cc1 | 13.5 (≈ 49.4 µM) |
| Cc1cc(C)c(OCC(=O)N2CC=C(c3ccccc3)CC2)c(C)c1 | 13 (≈ 38.8 µM) |
| O=C(OCC(=O)N1CCOCC1)c1ccccc1OCc1ccccc1Cl | 54.9 (≈ 141 µM) |

| Structure (SMILES) | solubility kinetic [µg/mL] |
| --- | --- |
| O=C(CCCn1cnc([N+](=O)[O-])n1)Nc1cc(Cl)ccc1O | > 48.9 |
| Cc1ccc(S(=O)(=O)/N=C(\N)c2ccc(Cl)cc2)cc1 | > 46.3 |
| COc1cc(/C=C/C(=O)OCC(=O)NC(=O)NC(C)C)ccc1O | > 50.5 |
| N#Cc1nc(-c2ccco2)oc1NCc1ccccc1Cl | 1.1 (≈ 3.67 µM) |
| N#Cc1ccc(Oc2c(Cl)cncc2Cl)cc1 | 23.2 (≈ 87.5 µM) |
| CC(=O)c1ccc(N2CCN(C(=O)c3cccs3)CC2)c(F)c1 | > 49.9 |
| O=C1NC2(CCCCC2)C(=O)N1c1ccc(Cl)cc1 | 3.8 (≈ 13.6 µM) |
| O=C(Nc1cccc2cccnc12)c1ccc(Cl)cc1Cl | < 0.3 |
| CCOc1ccc(NC(=O)CNc2cccc(S(=O)(=O)N3CCCCCC3)c2)cc1OCC | 18.8 (≈ 39.5 µM) |
| Cc1ccc(NC(=O)CN(C)C(=O)COC(=O)c2ccc(NC(=O)CC#N)cc2)cc1 | 36 (≈ 85.2 µM) |
| CCN1CCN(C(=O)c2cc(=O)c3cc(C)ccc3o2)CC1 | > 45.1 |
| COc1cccc(CNS(=O)(=O)c2csc(C(N)=O)c2)c1 | > 49 |
| Cc1cc(C(=O)OCC(=O)NC(C)C)c2ccccc2n1 | > 42.9 |
| Cc1ccc(S(=O)(=O)Nc2ccc3c(c2)OCCO3)cc1 | 42.3 (≈ 139 µM) |
| O=C(O)c1ccc(NCc2nc3ccccc3n2Cc2ccccc2)cc1 | > 53.6 |
| O=C1c2ccccc2C(=O)N1CC(O)COc1ccc(Cl)cc1 (centres undefined) | 6.1 (≈ 18.4 µM) |
| Cc1ccccc1OCCC(=O)Nc1ccccc1C(=O)N1CCCCC1 | 52.7 (≈ 144 µM) |
| FC(F)(F)c1cnc2c(c1)[nH]c(=S)n2-c1ccc(Cl)cc1 | 3 (≈ 9.1 µM) |
| O=[N+]([O-])/C=C1\C=CC=CN1Cc1ccc(Cl)cc1 | 31.7 (≈ 121 µM) |
| CCc1ccc(N2CN(Cc3cccnc3)CNC2=S)cc1 | > 46.9 |
| CN(CC(=O)Nc1cccc(F)c1)C(=O)c1ccc(OCc2cn3ccccc3n2)cc1 | 9.2 (≈ 21.3 µM) |
| Cc1ccc(NC(=O)O/N=C/c2ccc(Br)cc2)cc1 | 1.4 (≈ 4.2 µM) |
| Cc1cc(C)c2c3c(oc2n1)C(=O)N(c1cccc(Cl)c1)CC(=O)N3 | 0.7 (≈ 1.97 µM) |
